Source: patent publication US20230081679A1, “SURFACTANT VESICLES FOR VACCINE FORMULATION, TARGETED DRUG DELIVERY, AND TRANSFECTION” (University of Maryland, College Park, priority 2021, published 2023)
Converted amounts (≈) assume the structure as drawn. “And” between values parts separate entries of the source, which are not always exact repeats. Identical values can stand only once. Like-named read-outs stand apart in the source and are kept apart here. {BHQ2} = Black Hole Quencher 2; {FAM} = fluorescein

Legend:
[1] = Encapsulation in catanionic SVs (gel filtration, then NMR or ICP-AES); type: physicochemical
Procedure: Vesicles were formed in the presence of several different sugars, purified by gel filtration, and the encapsulated sugar concentration measured by NMR (Table 3).
Table 6 summarizes the EE and drug concentration achieved with each of the chemotherapeutic agents under the standard SDBS-rich SVs formulation method.
The gel was flushed with two column-volumes of PBS 1×. Next, 1.0 mL of crude vesicle suspension was loaded onto the column and gravity fed into the gel. 2.0 mL of PBS 1× eluent was then added to the column and the fractions discarded. 1.5 mL of PBS 1× was then added to the column and the fractions collected to yield purified opaque light blue vesicles. The column was cleaned with 2.0 mL of 0.1% Triton X-100 in water followed by two column volumes of PBS 1×.

[2] = for Second Order Rate Constant k’: 60:40 w/w SDBS:CTAT, 1% w/w total surfactant
Procedure: To assess the rate of encapsulated substrate release, dialysis was initially considered. […] The assay was to remove aliquots from SVs-encapsulated formulations at time intervals and re-purify the aliquot by size-exclusion chromatography (SEC). Vesicle fractions elute in the initial fractions while release carbohydrate is retained on the column and elutes in the later fractions. The quantity of carbohydrate released was determined by ^1H-NMR (FIG. 28).
Using the SEC method, the initial rate of glucose release was analyzed for vesicle encapsulated glucose solutions at varying concentrations. […] Therefore, a simple model with first-order release kinetics across the vesicle membrane (Eq. 1) was used, from which the rate law (Eq. 2) can be derived, where [Sugar]in and [Sugar]out are the sugar concentrations inside and outside the vesicle, respectively.
The release for each vesicle-encapsulated sugar preparation was monitored for at least two half-lives (monosaccharides) and at least one half-life (disaccharides and maltotriose). The release profile for each substrate was then fit to Eq. 3 by a least squares method, and the first order rate constant k1 was calculated. The reported uncertainties represent the standard deviation in the measured k1 of three separate batches of vesicle-encapsulated sugar.
The t1/2 was calculated from each k1, and the permeability coefficient (P) was calculated using k1 and the vesicle size (from DLS experiments) according to: […]

[3] = Vesicle radius and PDI by DLS
Procedure: To measure the average size of the vesicles, 100 μL of the solution was taken and diluted to 1 mL with water and analyzed using dynamic light scattering (DLS).

DNase I = DNase I Protection Assay; details: 25° C. or 37° C., intact vesicles
Procedure: FIG. 10. […] Vesicle-incorporated fluorescently-quenched 20 bp DNA duplexes were subjected to DNase I cleavage at 25° C. (A) or 37° C. (B) before (intact) and after (broken) freeze/thaw cycles to promote vesicle rupturing. […] Variation in overall fluorescent intensity in the ruptured samples reflect the variability in vesicle rupture and reformation during the freeze/thaw process.
DNase I Protection Assay: Intact DNA duplex loaded vesicles were added to reaction buffer containing 2.5 mM magnesium chloride, 0.5 mM calcium chloride, and 1× PBS. DNase I (Thermo Fisher Scientific, Waltham, Mass.) was added to a final concentration of 0.005 U/μL and the reaction was monitored by fluorescence (excitation at 494 nm, emission 521 nm) collected on SpectraMax M5 Microplate Reader (Molecular Devices, San Jose, Calif.) over 3 h at 25° C. or 37° C. Broken vesicles were prepared by 3 freeze thaw cycles of 10 min at −80° C. and 2 min at RT. Following the freeze thaw procedure, the samples equilibrated at RT for 30 min and were used in the assay as described above.

[4] = Encapsulation in catanionic SVs (gel filtration, then NMR or ICP-AES); type: physicochemical; details: empty SVs incubated in 4 mM D-maltose solution for three weeks
[5] = Conversion of carboplatin in PBS 1×; type: physicochemical; details: 40 mM in PBS 1×, 48 h, room temperature
[6] = Drug pKa and solubility in buffer; type: physicochemical
[7] = saline at 37° C.; cited from earlier work
A549 = experiment: Empty vesicles vs. DOX-vesicles on cell lines; type: cell-based; details: Homo sapiens; A549 non-small cell lung cancer
Excerpt: (§1) Empty vesicles vs. DOX-vesicles. 3 cell lines: MDA-MB-231: human breast cancer; MCF-7: human breast cancer; A549: non-small cell lung cancer.

MDA-MB-231 = experiment: Empty vesicles vs. DOX-vesicles on cell lines; type: cell-based; details: MDA-MB-231 human breast cancer
Excerpt: as §1

[8] = cited from earlier work
[9] = chemotherapeutic drugs in SDBS-rich SVs, PBS 1×
[10] = drug release from catanionic SVs, PBS 1×
[11] = 500 mM sugar, deionized water instead of PBS 1×
[12] = prepared in 500 mM sugar, PBS 1×
[13] = 25° C., PBS 1× pH 7.4, 60:40 w/w SDBS rich vesicles, 500 mM sugar
[14] = sugar vesicles, 500 mM sugar, PBS 1×, after 24 h
[15] = sugar vesicles, deionized water instead of PBS 1×, after 24 h
[16] = 250 mM cellobiose instead of 500 mM, PBS 1×
[17] = sugar vesicles, 250 mM cellobiose, PBS 1×, after 24 h
[18] = 100 mM glucosamine instead of 500 mM, PBS 1×
[19] = sugar vesicles, 100 mM glucosamine, PBS 1×, after 24 h

Nc1nc2[nH]cc(CCc3ccc(C(=O)N[C@@H](CCC(=O)O)C(=O)O)cc3)c2c(=O)[nH]1 [Pemetrexed, pemetrexed]
EE (%) [1, 9]: 0.80% | [Drug], mM (in purified vesicles) [1, 9]: 0.45 ± 0.09 mM | Half-life t1/2 [2]: 47 ± 4 h | First Order Rate Constant k [2, 10]: 0.015 ± 0.001 h⁻¹ | Vesicle PDI ([3]; drug-loaded catanionic SVs): 0.17 | Vesicle Radius (nm) ([3]; drug-loaded catanionic SVs): 73 nm

20 bp DNA duplexes: fluorescently-quenched 20 bp DNA duplexes (SEQ ID NO:3 and 4), vesicle-incorporated (chain 1 ACCCTACGTATCGGTCAGTC; chain 2 GACTGACCGATACGTAGGGT; chain 1: DNA, 3' {FAM}, backbone and methylation of C not given here; chain 2: DNA, 5' {BHQ2}, backbone and methylation of C not given here)
protection from DNase I cleavage, vesicle-incorporated (DNase I): protected from nuclease digestion

O=C[C@H](O)[C@@H](O)[C@H](O)[C@H](O)CO [D-glucose]
EE (%) [1, 11]: 0.67% | [Sugar], mM (in purified vesicles) [1, 11]: 2 ± 1 mM | EE (%) [1, 12]: 1.1% | [Sugar], mM (in purified vesicles) [1, 12]: 3.7 ± 0.8 mM | EE ([1]; vesicles prepared in 0.1 M glucose): 1.9% | First Order Rate Constant k [2, 13]: 0.12 ± 0.03 h⁻¹ | First Order Rate Constant k ([2]; 25° C., in water instead of PBS 1×, 500 mM sugar): 0.12 ± 0.05 h⁻¹ | slope of ln starting concentration vs ln initial release rate ([2]; vesicles prepared in 0.1, 0.2 and 0.5 M glucose): 1.1±0.2 | Vesicle PDI [3, 14]: 0.17 | Vesicle Radius (nm) [3, 14]: 75 nm | Vesicle PDI [3, 15]: 0.40 | Vesicle Radius (nm) [3, 15]: 178 nm

O=C[C@H](O)[C@H](O)[C@H](O)CO [D-ribose]
EE (%) [1, 12]: 0.084% | [Sugar], mM (in purified vesicles) [1, 12]: 0.28 ± 0.02 mM | Vesicle PDI [3, 14]: 0.20 | Vesicle Radius (nm) [3, 14]: 72 nm

OC[C@H]1O[C@H](O[C@H]2[C@H](O)[C@@H](O)[C@H](O)O[C@@H]2CO)[C@H](O)[C@@H](O)[C@@H]1O [D-maltose]
EE (%) [1, 12]: 1.2% | [Sugar], mM (in purified vesicles) [1, 12]: 4.1 ± 0.3 mM | Second Order Rate Constant k’ ([2]; 25° C., PBS 1×): 0.000333 ± 8.3e-05 M⁻¹ s⁻¹ | Second Order Rate Constant k’ ([2]; 25° C., PBS 1×, listed as Maltose): 0.000333 ± 8.3e-05 M⁻¹ s⁻¹ | EE [4]: 5% | maltose trapped by vesicles [4]: 0.2 mM | Vesicle PDI [3, 14]: 0.13 | Vesicle Radius (nm) [3, 14]: 80 nm

maltotriose
EE (%) [1, 12]: 0.65% | [Sugar], mM (in purified vesicles) [1, 12]: 2.2 ± 0.2 mM | Second Order Rate Constant k’ ([2]; 25° C., PBS 1×): 0.00211 ± 0.00022 M⁻¹ s⁻¹ | Vesicle PDI [3, 14]: 0.13 | Vesicle Radius (nm) [3, 14]: 95 nm

O=S(=O)(O)N[C@H]1C(O)O[C@H](CO)[C@@H](O)[C@@H]1O (stereo partly drawn) [D-glucosamine-2-sulfate]
EE (%) [1, 12]: 1.0% | [Sugar], mM (in purified vesicles) [1, 12]: 3.3 ± 0.7 mM | First Order Rate Constant k [2, 13]: 0.29 ± 0.06 h⁻¹ | Vesicle PDI [3, 14]: 0.06 | Vesicle Radius (nm) [3, 14]: 69 nm

OC[C@H]1O[C@@H](O[C@H]2[C@H](O)[C@@H](O)[C@H](O)O[C@@H]2CO)[C@H](O)[C@@H](O)[C@@H]1O [D-cellobiose]
EE (%) [1, 16]: 1.2% | [Sugar], mM (in purified vesicles) [1, 16]: 2.0 ± 0.4 mM | Second Order Rate Constant k’ ([2]; 25° C., PBS 1×): 0.000722 ± 0.00014 M⁻¹ s⁻¹ | Vesicle PDI [3, 17]: 0.15 | Vesicle Radius (nm) [3, 17]: 90 nm

OC[C@H]1O[C@@](CO)(O[C@H]2O[C@H](CO)[C@@H](O)[C@H](O)[C@H]2O)[C@@H](O)[C@@H]1O [D-sucrose]
EE (%) [1, 12]: 0.86% | [Sugar], mM (in purified vesicles) [1, 12]: 3.2 ± 0.4 mM | Second Order Rate Constant k’ ([2]; 25° C., PBS 1×): 0.00186 ± 0.00011 M⁻¹ s⁻¹ | fold faster leakage than maltose ([2]; second order release from SVs): 5.6 fold | Vesicle PDI [3, 14]: 0.12 | Vesicle Radius (nm) [3, 14]: 82 nm

N.N.O=C([O-])C1(C(=O)[O-])CCC1.[Pt+2] [Carboplatin, carboplatin]
EE (%) [1, 9]: 1.9% | [Drug], mM (in purified vesicles) [1, 9]: 0.5 ± 0.1 mM | leaked out of the vesicles ([2]; at the 48 h mark): over 50% | First Order Rate Constant k [2, 10]: 0.039 ± 0.004 h⁻¹ | fold slower release than cisplatin ([2]; release from SVs): 20 fold | fold slower release than glucose ([2]; release from SVs): 3 fold | converted to cisplatin [5]: 2% | remained unreacted [5]: 93% | solubility (concentration in buffer) [6]: 40 mM | kobs of ligand exchange [7]: 7.7e-07 s⁻¹ | t1/2 of ligand exchange [7]: ≈ 10 days | Vesicle PDI ([3]; drug-loaded catanionic SVs): 0.19 | Vesicle Radius (nm) ([3]; drug-loaded catanionic SVs): 74 nm

O=C[C@H](O)[C@@H](O)[C@@H](O)[C@H](O)CO [D-galactose]
EE (%) [1, 12]: 0.82% | [Sugar], mM (in purified vesicles) [1, 12]: 2.7 ± 0.7 mM | First Order Rate Constant k [2, 13]: 0.16 ± 0.02 h⁻¹ | Vesicle PDI [3, 14]: 0.20 | Vesicle Radius (nm) [3, 14]: 83 nm

COC1OC(CO)C(O)C(O)C1O [α-D-methylglucoside]
EE (%) [1, 12]: 0.17% | [Sugar], mM (in purified vesicles) [1, 12]: 0.6 ± 0.2 mM | First Order Rate Constant k [2, 13]: 3.7 ± 0.5 h⁻¹ | Vesicle PDI [3, 14]: 0.19 | Vesicle Radius (nm) [3, 14]: 75 nm

N[C@H]1C(O)O[C@H](CO)[C@@H](O)[C@@H]1O (stereo partly drawn) [D-glucosamine]
EE (%) [1, 18]: 3.5% | [Sugar], mM (in purified vesicles) [1, 18]: 2.3 ± 0.2 mM | First Order Rate Constant k ([2]; 25° C., PBS 1× pH 7.4, 100 mM sugar concentration): 0.11 ± 0.01 h⁻¹ | Vesicle PDI [3, 19]: 0.23 | Vesicle Radius (nm) [3, 19]: 78 nm

N.N.[Cl][Pt][Cl] [Cisplatin, cisplatin]
EE (%) [1, 9]: 2.1% | [Drug], mM (in purified vesicles) [1, 9]: 0.05 ± 0.01 mM | First Order Rate Constant k [2, 10]: 0.78 ± 0.06 h⁻¹ | Vesicle PDI ([3]; drug-loaded catanionic SVs): 0.16 | Vesicle Radius (nm) ([3]; drug-loaded catanionic SVs): 76 nm

O=C[C@@H](O)[C@@H](O)[C@H](O)[C@H](O)CO [D-mannose]
EE (%) [1, 12]: 0.87% | [Sugar], mM (in purified vesicles) [1, 12]: 2.9 ± 0.2 mM | First Order Rate Constant k [2, 13]: 0.26 ± 0.06 h⁻¹ | Vesicle PDI [3, 14]: 0.18 | Vesicle Radius (nm) [3, 14]: 74 nm

COc1cccc2c1C(=O)c1c(O)c3c(c(O)c1C2=O)C[C@@](O)(C(=O)CO)C[C@@H]3O[C@H]1C[C@H](N)[C@H](O)[C@H](C)O1 [Doxorubicin, doxorubicin]
EE (%) [1, 9]: 61% | [Drug], mM (in purified vesicles) [1, 9]: 0.15 ± 0.02 mM | EE (%) ([1]; chemotherapeutic drugs in SDBS-rich SVs, PBS 1×, listed as doxorubicin): 60% and 61% | release from vesicles after 11 days ([2]; within detection limits, after 11 days): no release | IC50 (A549): 0.02 µg/mL (≈ 0.0368 µM) | IC50 (MDA-MB-231): 0.06 µg/mL (≈ 0.11 µM) | pKa [8]: 8.4 | Vesicle PDI ([3]; drug-loaded catanionic SVs): 0.25 | Vesicle Radius (nm) ([3]; drug-loaded catanionic SVs): 91 nm
